From patent US9993478B2, “1-pyrazolyl-3-(4-((2-anilinopyrimidin-4-yl) oxy) napththalen-1-yl) ureas as P38 MAP knase inhibitors” (Respivert Ltd., priority 2011, dated 2018) come the findings set out here.

This data set relates to d-U937 cells. The experiment in a line: Cell viability: MTT assay. The format is cell-based, human. Particulars: 1 μg/mL. As for the experimental part: Differentiated U937 cells were pre-incubated with each test compound (final concentration 1 μg/mL or 10 μg/mL in 200 μL media indicated below) under two protocols: the first for 4 hr in 5% FCS RPMI1640 media and the second in 10% FCS RPMI1640 media for 24 h. The supernatant was replaced with new media (200 μL) and MTT stock solution (10 μL, 5 mg/mL) was added to each well. After incubation for 1 hr the media were removed, DMSO (200 μL) was added to each well and the plates were shaken lightly for 1 hr prior to reading the absorbance at 550 nm. The percentage loss of cell viability was calculated for each well relative to vehicle (0.5% DMSO) treatment. Consequently an apparent increase in cell viability for drug treatment relative to vehicle is tabulated as a negative percentage.

As to `Cc1ccc(-n2nc(C(C)(C)C)cc2NC(=O)Nc2ccc(Oc3ccnc(Nc4ccc(F)cc4)n3)c3ccccc23)cc1` [Example 23, 1-(3-(tert-butyl)-1-(p-tolyl)-1H-pyrazol-5-yl)-3-(4-((2-((4-fluorophenyl)amino)pyrimidin-4-yl)oxy)naphthalen-1-yl)urea], the “MTT Assay Cell viability at time point in d-U937 Cells 4 h” value is “−ve (−ve and +ve indicate the value is below and above respectively, the no significant effect threshold defined as 30% inhibition at 1 μg/mL at the time point indicated)”; the “MTT Assay Cell viability at time point in d-U937 Cells 24 h” value was “−ve (−ve and +ve indicate the value is below and above respectively, the no significant effect threshold defined as 30% inhibition at 1 μg/mL at the time point indicated)”.
Regarding `Cc1ccc(-n2nc(C(C)(C)C)cc2NC(=O)Nc2ccc(Oc3ccnc(Nc4ccc(C)c(O)c4)n3)c3ccccc23)cc1` [Example 26, 1-(3-(tert-butyl)-1-(p-tolyl)-1H-pyrazol-5-yl)-3-(4-((2-((3-hydroxy-4-methylphenyl)amino)pyrimidin-4-yl)oxy)naphthalen-1-yl)urea], the “MTT Assay Cell viability at time point in d-U937 Cells 4 h” value was “−ve (−ve and +ve indicate the value is below and above respectively, the no significant effect threshold defined as 30% inhibition at 1 μg/mL at the time point indicated)”; the “MTT Assay Cell viability at time point in d-U937 Cells 24 h” value is “−ve (−ve and +ve indicate the value is below and above respectively, the no significant effect threshold defined as 30% inhibition at 1 μg/mL at the time point indicated)”.
As to `Cc1ccc(-n2nc(C(C)(C)C)cc2NC(=O)Nc2ccc(Oc3ccnc(Nc4ccccc4C(C)C)n3)c3ccccc23)cc1` [Example 20, 1-(3-(tert-butyl)-1-(p-tolyl)-1H-pyrazol-5-yl)-3-(4-((2-((2-isopropylphenyl)amino)pyrimidin-4-yl)oxy)naphthalen-1-yl)urea], the “MTT Assay Cell viability at time point in d-U937 Cells 4 h” value is “−ve (−ve and +ve indicate the value is below and above respectively, the no significant effect threshold defined as 30% inhibition at 1 μg/mL at the time point indicated)”; the “MTT Assay Cell viability at time point in d-U937 Cells 24 h” value is “−ve (−ve and +ve indicate the value is below and above respectively, the no significant effect threshold defined as 30% inhibition at 1 μg/mL at the time point indicated)”.
`COc1cccc(Nc2nccc(Oc3ccc(NC(=O)Nc4cc(C(C)(C)C)nn4-c4ccc(C)cc4)c4ccccc34)n2)c1` [Example 14, 1-(3-(tert-butyl)-1-(p-tolyl)-1H-pyrazol-5-yl)-3-(4-((2-((3-methoxyphenyl)amino)pyrimidin-4-yl)oxy)naphthalen-1-yl)urea]: the “MTT Assay Cell viability at time point in d-U937 Cells 4 h” value is “−ve (−ve and +ve indicate the value is below and above respectively, the no significant effect threshold defined as 30% inhibition at 1 μg/mL at the time point indicated)”; the “MTT Assay Cell viability at time point in d-U937 Cells 24 h” value was “−ve (−ve and +ve indicate the value is below and above respectively, the no significant effect threshold defined as 30% inhibition at 1 μg/mL at the time point indicated)”.
For `COc1ccc(Nc2nccc(Oc3ccc(NC(=O)Nc4cc(C(C)(C)C)nn4-c4ccc(C)cc4)c4ccccc34)n2)cc1` [Example 17, 1-(3-(tert-butyl)-1-(p-tolyl)-1H-pyrazol-5-yl)-3-(4-((2-((4-methoxyphenyl)amino)pyrimidin-4-yl)oxy)naphthalen-1-yl)urea], the “MTT Assay Cell viability at time point in d-U937 Cells 4 h” value is “−ve (−ve and +ve indicate the value is below and above respectively, the no significant effect threshold defined as 30% inhibition at 1 μg/mL at the time point indicated)”; the “MTT Assay Cell viability at time point in d-U937 Cells 24 h” value was “−ve (−ve and +ve indicate the value is below and above respectively, the no significant effect threshold defined as 30% inhibition at 1 μg/mL at the time point indicated)”.
In the case of `Cc1ccc(-n2nc(C(C)(C)C)cc2NC(=O)Nc2ccc(Oc3ccnc(Nc4ccc(O)cc4O)n3)c3ccccc23)cc1` [Example 32, 1-(3-(tert-butyl)-1-(p-tolyl)-1H-pyrazol-5-yl)-3-(4-((2-((2,4-dihydroxyphenyl)amino)pyrimidin-4-yl)oxy)naphthalen-1-yl)urea], the “MTT Assay Cell viability at time point in d-U937 Cells 4 h” value was “−ve (−ve and +ve indicate the value is below and above respectively, the no significant effect threshold defined as 30% inhibition at 1 μg/mL at the time point indicated)”; the “MTT Assay Cell viability at time point in d-U937 Cells 24 h” value is “−ve (−ve and +ve indicate the value is below and above respectively, the no significant effect threshold defined as 30% inhibition at 1 μg/mL at the time point indicated)”.
As for `Cc1ccc(-n2nc(C(C)(C)C)cc2NC(=O)Nc2ccc(Oc3ccnc(Nc4cccc(F)c4)n3)c3ccccc23)cc1` [Example 15, 1-(3-(tert-butyl)-1-(p-tolyl)-1H-pyrazol-5-yl)-3-(4-((2-((3-fluorophenyl)amino)pyrimidin-4-yl)oxy)naphthalen-1-yl)urea], the “MTT Assay Cell viability at time point in d-U937 Cells 4 h” value is “−ve (−ve and +ve indicate the value is below and above respectively, the no significant effect threshold defined as 30% inhibition at 1 μg/mL at the time point indicated)”; the “MTT Assay Cell viability at time point in d-U937 Cells 24 h” value is “−ve (−ve and +ve indicate the value is below and above respectively, the no significant effect threshold defined as 30% inhibition at 1 μg/mL at the time point indicated)”.
Take `COCC(=O)Nc1cc(Oc2ccc(NC(=O)Nc3cc(C(C)(C)C)nn3-c3ccc(C)cc3)c3ccccc23)ccn1` [Reference Compound, N-(4-(4-(3-(3-tert-butyl-1-p-tolyl-1H-pyrazol-5-yl)ureido)naphthalen-1-yloxy)pyridin-2-yl)-2-methoxyacetamide, reference compound]: the “MTT Assay Cell viability at time point in d-U937 Cells 4 h” value was “−ve (−ve and +ve indicate the value is below and above respectively, the no significant effect threshold defined as 30% inhibition at 1 μg/mL at the time point indicated)”; the “MTT Assay Cell viability at time point in d-U937 Cells 24 h” value was “+ve (−ve and +ve indicate the value is below and above respectively, the no significant effect threshold defined as 30% inhibition at 1 μg/mL at the time point indicated)”.
For the compound `COc1ccc(Nc2nccc(Oc3ccc(NC(=O)Nc4cc(C(C)(C)C)nn4-c4ccc(C)cc4)c4ccccc34)n2)cc1Cl` [Example 28, 1-(3-(tert-butyl)-1-(p-tolyl)-1H-pyrazol-5-yl)-3-(4-((2-((3-chloro-4-methoxyphenyl)amino)pyrimidin-4-yl)oxy)naphthalen-1-yl)urea], the “MTT Assay Cell viability at time point in d-U937 Cells 4 h” value is “−ve (−ve and +ve indicate the value is below and above respectively, the no significant effect threshold defined as 30% inhibition at 1 μg/mL at the time point indicated)”; the “MTT Assay Cell viability at time point in d-U937 Cells 24 h” value is “−ve (−ve and +ve indicate the value is below and above respectively, the no significant effect threshold defined as 30% inhibition at 1 μg/mL at the time point indicated)”.
Regarding `COc1ccc(-n2nc(C(C)(C)C)cc2NC(=O)Nc2ccc(Oc3ccnc(Nc4ccc(O)cc4)n3)c3ccccc23)cc1` [Example 33, 1-(3-(tert-butyl)-1-(4-methoxyphenyl)-1H-pyrazol-5-yl)-3-(4-((2-((4-hydroxyphenyl)amino)pyrimidin-4-yl)oxy)naphthalen-1-yl)urea], the “MTT Assay Cell viability at time point in d-U937 Cells 4 h” value was “−ve (−ve and +ve indicate the value is below and above respectively, the no significant effect threshold defined as 30% inhibition at 1 μg/mL at the time point indicated)”; the “MTT Assay Cell viability at time point in d-U937 Cells 24 h” value was “−ve (−ve and +ve indicate the value is below and above respectively, the no significant effect threshold defined as 30% inhibition at 1 μg/mL at the time point indicated)”.
For the compound `Cc1ccc(Nc2nccc(Oc3ccc(NC(=O)Nc4cc(C(C)(C)C)nn4-c4ccc(C)cc4)c4ccccc34)n2)cc1` [Example 11, 1-(3-(tert-butyl)-1-(p-tolyl)-1H-pyrazol-5-yl)-3-(4-((2-(p-tolylamino)pyrimidin-4-yl)oxy)naphthalen-1-yl)urea], the “MTT Assay Cell viability at time point in d-U937 Cells 4 h” value was “−ve (−ve and +ve indicate the value is below and above respectively, the no significant effect threshold defined as 30% inhibition at 1 μg/mL at the time point indicated)”; the “MTT Assay Cell viability at time point in d-U937 Cells 24 h” value was “−ve (−ve and +ve indicate the value is below and above respectively, the no significant effect threshold defined as 30% inhibition at 1 μg/mL at the time point indicated)”.
Turning to `Cc1ccc(-n2nc(C(C)(C)C)cc2NC(=O)Nc2ccc(Oc3ccnc(Nc4ccccc4C)n3)c3ccccc23)cc1` [Example 21, 1-(3-(tert-butyl)-1-(p-tolyl)-1H-pyrazol-5-yl)-3-(4-((2-(o-tolylamino)pyrimidin-4-yl)oxy)naphthalen-1-yl)urea], the “MTT Assay Cell viability at time point in d-U937 Cells 4 h” value is “−ve (−ve and +ve indicate the value is below and above respectively, the no significant effect threshold defined as 30% inhibition at 1 μg/mL at the time point indicated)”; the “MTT Assay Cell viability at time point in d-U937 Cells 24 h” value was “−ve (−ve and +ve indicate the value is below and above respectively, the no significant effect threshold defined as 30% inhibition at 1 μg/mL at the time point indicated)”.
Turning to `Cc1ccc(-n2nc(C(C)(C)C)cc2NC(=O)Nc2ccc(Oc3ccnc(Nc4ccccc4F)n3)c3ccccc23)cc1` [Example 4, 1-(3-(tert-butyl)-1-(p-tolyl)-1H-pyrazol-5-yl)-3-(4-((2-((2-fluorophenyl)amino)pyrimidin-4-yl)oxy)naphthalen-1-yl)urea], the “MTT Assay Cell viability at time point in d-U937 Cells 4 h” value is “−ve (−ve and +ve indicate the value is below and above respectively, the no significant effect threshold defined as 30% inhibition at 1 μg/mL at the time point indicated)”; the “MTT Assay Cell viability at time point in d-U937 Cells 24 h” value is “−ve (−ve and +ve indicate the value is below and above respectively, the no significant effect threshold defined as 30% inhibition at 1 μg/mL at the time point indicated)”.
